Here are results for one compound from article PMC9229894, “In Silico, In Vitro, and Pharmacokinetic Studies of UBMC-4, a Potential Novel Compound for Treating against Trypanosoma cruzi” (Pathogens, 2022).

This series can be described thus: In vivo pharmacokinetic analysis of UBMC-4 in mice (HPLC plasma, two-compartment model). On the set-up: species or system Balb/c Mus musculus. Here is the method: A total of 30 mice (15 males and 15 females) was randomly selected and divided into two groups: one group received a 200 µL oral single dose of UBMC-4 at a concentration of 60 mM (equivalent to a 200 mg/kg dose), and a control group receiving 200 µL of vehicle (Kolliphor and water without UBMC-4) via oral route. Considering that the average weight of the mice was 25 g, the total amount of UBMC-4 administered was 5 mg. The compound was only administered orally, it was not used intravenously since one of the primary objectives was to evaluate its gastrointestinal absorption. […] In this way, we wanted to find the highest potential plasma concentrations before inducing toxicity. Blood samples were collected in EDTA tubes via intracardiac puncture performed under general anesthesia in both groups at sampling time points as follows: 0 h, 1 h, 2 h, 3 h, 5 h, 6 h, 8 h, and 24 h. Samples were then centrifuged at 1800 rpm at 4 °C for 10 min to collect plasma. For each sampling time point, 100 µL of mouse plasma were collected and 200 µL of acetone were added. This mixture was vortexed for 30 s and centrifuged at 10,000 rpm at 4 °C for 20 min. Supernatants were poured into vials for HPLC analysis following the method described below.
The amount of UBMC-4 in plasma samples was quantified by a HPLC method using a Hitachi Chromaster HPLC System with a Knauer C18 Column as follows: λ: 300 nm; temperature: 40 °C; run time: 13 min at a flow rate of 1.0 mL/min. A gradient of acetonitrile:water:methanol in a 30:40:30 ratio was used as mobile phase from baseline to minute 6, a 20:0:80 ratio from minute 7 to minute 10, and again a 30:40:30 ratio from minute 11. Linearity of the method was calculated for the 0.5 µg/mL to 20 µg/mL concentration range, with a r^2 (correlation coefficient) of 0.969 for the relationship between the area under the curve and UBMC-4 absorption at 300 nm.
The ADAPT 5 software was used to determine the most suitable model for the UBMC-4 plasma concentration profile. The maximum likelihood estimation method was used for modeling. After conducting trials where various models were used, the best one was chosen based on the -Log-Likelihood (-LL) and Akaike information criterion (AIC) values. Consequently, by comparing models, the one producing lower values amongst these two parameters would be the one that best fit the plasma concentration data and the most useful for pharmacokinetic studies. Moreover, based on the R-square value (r^2), we assessed the correlation between the values predicted by the model and those observed in UBMC-4 plasma concentration. The selected model was therefore used to elaborate simulations using different administration regimens and thus predicting what would happen with UBMC-4 concentration levels upon administration of repeated dosage. This simulation was also performed using ADAPT 5 [36, 66, 67]

The mark [1] stands for this setting: two-compartment model, 200 mg/kg oral.

Structures are written as SMILES. Several values for one entry are separate records, joined by “and”; a condition that tells them apart may be missing. Equal values may be shown once. Entries after “also recorded” stand apart in the source; their conditions may differ.

Turning to `Oc1ccc(-c2nc(-c3ccc4sc5ccccc5c4c3)c(-c3ccccc3)[nH]2)cc1` [UBMC-4, 4-(4-dibenzo-[b,d]-thien-2-yl-5-phenyl-1H-imidazol-2-yl)phenol], where the note is “200 mg/kg oral single dose”, the “time of highest plasma concentration” value is given as 3 h. Also, the oral absorption result (200 mg/kg oral, Kolliphor RH40 formulation, 200 mg/kg) was “well absorbed; also recorded: absorbed orally”. Moreover, the concentration at 0 h (both sexes, Balb/c, mouse, plasma, 200 mg/kg oral single dose, 0 h) was found to be 0 ng/mL. For the same compound, the concentration at 1 h (both sexes, Balb/c, mouse, plasma, 200 mg/kg oral single dose, 1 h) is 2800 ng/mL and 6.69 µM. Where the note is “both sexes, Balb/c, mouse, plasma, 200 mg/kg oral single dose, 2 h”, this compound had a concentration at 2 h of 3200 ng/mL. This compound also gave a concentration at 3 h (both sexes, Balb/c, mouse, plasma, 200 mg/kg oral single dose, 3 h) of 4200 ng/mL. In addition, where the note is “both sexes, Balb/c, mouse, plasma, 200 mg/kg oral single dose, 5 h”, the concentration at 5 h worked out at 3800 ng/mL. The compound also showed a concentration at 6 h (both sexes, Balb/c, mouse, plasma, 200 mg/kg oral single dose, 6 h) of 3700 ng/mL. This compound also came in with a concentration at 8 h (both sexes, Balb/c, mouse, plasma, 200 mg/kg oral single dose, 8 h) of 3600 ng/mL. For the same compound, for the setting “both sexes, Balb/c, mouse, plasma, 200 mg/kg oral single dose, 24 h”, the concentration at 24 h is 2400 ng/mL and 5.74 µM. For the same compound, the Cmax (both sexes, Balb/c, mouse, plasma, po, 200 mg/kg, 200 mg/kg oral single dose, read-out: highest plasma concentration (Cmax)) is 4200 ng/mL and 10 µM. Also, the half-life (both sexes, Balb/c, mouse, plasma, two-compartment model, 200 mg/kg oral, read-out: estimated half-life (t1/2) (converted)) was 22.4 h. Under setting [1], this compound showed a CLd/F intercompartmental clearance of 0.2514 L/h, a CLt/F total clearance of 0.0357 L/h, a Ka absorption constant of 0.6213 h⁻¹ and a Vc/F central volume of 0.6930 L. Under setting [1], the Vp/F peripheral volume is recorded as 0.4360 L.
